Each structure is given as a SMILES string. Some results are limits rather than exact numbers.

The first test deals with HCV genotype 1b replicon in Huh 7 cells (HCV 1b_Huh-Luc/Neo-ET cell line). Briefly: HCV replicon assay (luciferase readout). Type of test: cell-based. Conditions: Hepatitis C virus, Huh-7, 72 h, read-out: Inhibition of HCV genotype lb. As for the experimental part:
Biological activity of the compounds of the invention was determined using an HCV replicon assay. The HCV 1b_Huh-Luc/Neo-ET cell line persistently expressing a bicistronic genotype 1b replicon in Huh 7 cells was obtained from ReBLikon GMBH. This cell line was used to test compound inhibition using luciferase enzyme activity readout as a measurement of compound inhibition of replicon levels.
On Day 1 (the day after plating cells), each compound is added in triplicate to the cells. Plates are incubated for 72 h prior to determining luciferase levels. Enzyme activity was measured using a Bright-Glo Kit (cat. number E2620) manufactured by Promega Corporation. The following equation was used to generate a percent control value for each compound. % Control=(Compound Luciferase Level/Control Luciferase Level)*100
The EC50 value was determined using GraphPad Prism and the following equation: Y=Bottom asymptote+(Top asymptote−Bottom asymptote)/(1+10^((Log EC50−X)*HillSlope))
EC50 values of compounds are determined several times in the replicon assay to generate average EC50 values.
Take `COCCOc1cc(-c2cnc([C@@H]3CCCN3C(=O)[C@@H](c3ccccc3)N(C)C)[nH]2)ccc1-c1ccc(-c2cnc([C@@H]3CCCN3C(=O)[C@@H](c3ccccc3)N(C)C)[nH]2)cc1OCCOC` [Compound 81]: the EC50 was 1 to 9.9 nM. On to `COCCOc1cc(-c2cnc([C@@H]3CCCN3C(=O)[C@H](NS(C)(=O)=O)c3ccccc3)[nH]2)ccc1-c1ccc(-c2cnc([C@@H]3CCCN3C(=O)[C@H](NS(C)(=O)=O)c3ccccc3)[nH]2)cc1OCCOC` [Compound 84], for which the EC50 lay within 1 to 9.9 nM. As for `COCCOc1c(-c2ccc(-c3cnc([C@@H]4CCCCN4C(=O)[C@@H](NC(=O)OC)C(C)C)[nH]3)cc2)ccc(-c2cnc([C@@H]3CCCCN3C(=O)[C@@H](NC(=O)OC)C(C)C)[nH]2)c1OCCOC` [Compound 91], the EC50 is 1 to 9.9 nM. On to `COCCOc1cc(-c2cnc([C@@H]3CCCN3C(=O)[C@H](COC)NC(=O)OC)[nH]2)ccc1-c1ccc(-c2cnc([C@@H]3CCCN3C(=O)[C@H](COC)NC(=O)OC)[nH]2)cc1OCCOC` [Compound 75], for which the EC50 is 1 to 9.9 nM. As for `CNC(=O)N[C@@H](C(=O)N1CCC[C@H]1c1ncc(-c2ccc(-c3ccc(-c4cnc([C@@H]5CCCN5C(=O)[C@H](NC(=O)NC)c5ccccc5)[nH]4)cc3OCCOC)c(OCCOC)c2)[nH]1)c1ccccc1` [Compound 85], the EC50 lay in the range of 1 to 9.9 nM. For `COCCOc1cc(-c2cnc([C@@H]3CCCN3C(=O)[C@@H](c3ccccc3)N3CCCC3)[nH]2)ccc1-c1ccc(-c2cnc([C@@H]3CCCN3C(=O)[C@@H](c3ccccc3)N3CCCC3)[nH]2)cc1OCCOC` [Compound 82], the EC50 was in the range of 1 to 9.9 nM. Turning to `COCCOc1cc(-c2cnc([C@@H]3CCCN3C(=O)[C@@H](NC(=O)OC)C(C)C)[nH]2)ccc1-c1ccc(-c2cnc([C@@H]3CCCN3C(=O)[C@@H](NC(=O)OC)C(C)C)[nH]2)cc1` [Compound 52], the EC50 was under 1 nM.

On to `COCCOc1cc(-c2cnc([C@@H]3CCCN3C(=O)[C@@H](NC(=O)OC)C(C)C)[nH]2)cc(OCCOC)c1-c1ccc(-c2cnc([C@@H]3CCCN3C(=O)[C@@H](NC(=O)OC)C(C)C)[nH]2)cc1` [Compound 92], for which the EC50 is under 1 nM. Same read-out and setting: with `COCCOc1cc(-c2cnc([C@@H]3CCCN3C(=O)[C@@H](NC(=O)OC)C(C)C)[nH]2)ccc1-c1ccc(-c2cnc([C@@H]3CCCN3C(=O)[C@H](NC(=O)OC)c3ccsc3)[nH]2)cc1OCCOC` [Compound 88] the figure was under 1 nM; with `COCCOc1cc(-c2ccc(-c3cnc([C@@H]4CCCN4C(=O)[C@@H](NC(=O)OC)C(C)C)[nH]3)c(OCCOC)c2)ccc1-c1cnc([C@@H]2CCCN2C(=O)[C@@H](NC(=O)OC)C(C)C)[nH]1` [Compound 54], 1 to 9.9 nM. Regarding `COCCOc1cc(-c2cnc([C@@H]3CCCN3C(=O)[C@H](NC(=O)OC)c3ccsc3)[nH]2)ccc1-c1ccc(-c2cnc([C@@H]3CCCN3C(=O)[C@H](NC(=O)OC)c3ccsc3)[nH]2)cc1OCCOC` [Compound 78], the EC50 fell in the range of 1 to 9.9 nM. On to `COCCOc1cc(-c2cnc([C@@H]3CCCN3C(=O)[C@H](COC)NC(=O)OC)[nH]2)ccc1-c1ccc(-c2cnc([C@@H]3CCCN3C(=O)[C@@H](NC(=O)OC)C(C)C)[nH]2)cc1OCCOC` [Compound 87], for which the EC50 lay within 1 to 9.9 nM. With `COCCOc1cc(-c2cnc([C@@H]3CCCN3C(=O)[C@H](NC(C)=O)c3ccccc3)[nH]2)ccc1-c1ccc(-c2cnc([C@@H]3CCCN3C(=O)[C@H](NC(C)=O)c3ccccc3)[nH]2)cc1OCCOC` [Compound 83], the EC50 was 1 to 9.9 nM.

Still in this test, the particulars now being: Hepatitis C virus, Huh-7; Table 1; EC50 range class; replicon luciferase, 72 h incubation, average EC50; read-out: Inhibition of HCV genotype 1b.
As for `CNC(=O)N[C@@H](C(=O)N1CCC[C@H]1c1ncc(-c2ccc(-c3ccc(-c4cnc([C@@H]5CCCN5C(=O)[C@H](NC(=O)NC)c5ccccc5)[nH]4)c(OCCOC)c3OCCOC)cc2)[nH]1)c1ccccc1` [Compound 24], the EC50 was under 1 nM.

As to `COCCOc1c(-c2ccc(-c3cnc([C@@H]4CCCN4C(=O)C(NC(=O)OC)[C@@H](C)OC)[nH]3)cc2)ccc(-c2cnc([C@@H]3CCCN3C(=O)C(NC(=O)OC)[C@@H](C)OC)[nH]2)c1OCCOC` (some centres unmarked) [Compound 12], the EC50 fell in the range of 1 to 9.9 nM.

As to `COCCOc1cc(-c2cnc([C@@H]3CCCN3C(=O)[C@@H](NC(=O)OC)C(C)C)[nH]2)ccc1-c1ccc(-c2cnc([C@@H]3CCCN3C(=O)[C@@H](NC(=O)OC)C(C)C)[nH]2)cc1OCCOC` [Compound 1], the EC50 was under 1 nM. For `COCCOc1c(-c2ccc(-c3cnc([C@@H]4CCCN4C(=O)[C@H](C)NC(=O)OC)[nH]3)cc2)ccc(-c2cnc([C@@H]3CCCN3C(=O)[C@H](C)NC(=O)OC)[nH]2)c1OCCOC` [Compound 10], the EC50 is under 1 nM. `COCCOc1c(-c2ccc(-c3cnc([C@@H]4COCCN4C(=O)[C@@H](NC(=O)OC)C(C)C)[nH]3)cc2)ccc(-c2cnc([C@@H]3CCCN3C(=O)[C@@H](NC(=O)OC)C(C)C)[nH]2)c1OCCOC` [Compound 40]: the EC50 is 1 to 9.9 nM.

As for `COCCOc1c(-c2ccc(-c3cnc([C@@H]4CCCN4C(=O)[C@@H](NC(=O)OC)C(C)C)[nH]3)cc2)ccc(-c2cnc([C@@H]3CCCN3C(=O)[C@H](NC(=O)OC)c3ccccc3)[nH]2)c1OCCOC` [Compound 30], the EC50 is under 1 nM. On to `COCCOc1cc(-c2cnc([C@@H]3CCCN3C(=O)[C@@H](NC(=O)OC)C(C)C)[nH]2)ccc1-c1ccc(-c2cnc([C@@H]3CCCN3C(=O)[C@@H](NC(=O)OC)C3CCCC3)[nH]2)cc1OCCOC` [Compound 36], for which the EC50 was under 1 nM.

As to `COCCOc1c(-c2ccc(-c3cnc([C@@H]4CCCN4C(=O)[C@@H](NC(=O)OC)C(C)(C)C)[nH]3)cc2)ccc(-c2cnc([C@@H]3CCCN3C(=O)[C@@H](NC(=O)OC)C(C)(C)C)[nH]2)c1OCCOC` [Compound 13], the EC50 lay within 1 to 9.9 nM.

On to `COCCOc1cc(-c2cnc([C@@H]3CCCN3C(=O)[C@@H](NC(=O)OC)C3CCCC3)[nH]2)ccc1-c1ccc(-c2cnc([C@@H]3CCCN3C(=O)[C@@H](NC(=O)OC)C3CCCC3)[nH]2)cc1OCCOC` [Compound 8], for which the EC50 was under 1 nM. In the case of `COCCOc1cc(-c2cnc([C@@H]3CCCN3C(=O)[C@@H](NC(=O)OC)C3CCCCC3)[nH]2)ccc1-c1ccc(-c2cnc([C@@H]3CCCN3C(=O)[C@@H](NC(=O)OC)C3CCCCC3)[nH]2)cc1OCCOC` [Compound 9], the EC50 was under 1 nM. For the molecule `COCCOc1c(-c2ccc(-c3cnc([C@@H]4CCCN4C(=O)[C@@H](NC(=O)OC)C(C)C)[nH]3)cc2)ccc(-c2cnc([C@@H]3CCCN3C(=O)[C@@H](NC(=O)OC)C(C)C)[nH]2)c1OCCOC` [Compound 2], the EC50 was under 1 nM. `COCCOc1cc(-c2cnc([C@@H]3CCCN3C(=O)[C@H](NC(=O)OC)c3ccccc3)[nH]2)ccc1-c1ccc(-c2cnc([C@@H]3CCCN3C(=O)[C@H](NC(=O)OC)c3ccccc3)[nH]2)cc1OCCOC` [Compound 26]: the EC50 is under 1 nM. Regarding `COCCOc1c(-c2ccc(-c3cnc([C@@H]4CSCN4C(=O)[C@@H](NC(=O)OC)C(C)C)[nH]3)cc2)ccc(-c2cnc([C@@H]3CCCN3C(=O)[C@@H](NC(=O)OC)C(C)C)[nH]2)c1OCCOC` [Compound 41], the EC50 fell in the range of 1 to 9.9 nM. With `COCCOc1c(-c2ccc(-c3cnc([C@@H]4CCCN4C(=O)[C@@H](NC(=O)OC)C4CCCC4)[nH]3)cc2)ccc(-c2cnc([C@@H]3CCCN3C(=O)[C@@H](NC(=O)OC)C3CCCC3)[nH]2)c1OCCOC` [Compound 4], the EC50 was under 1 nM. With `COC(=O)N[C@H](C(=O)N1CCC[C@H]1c1ncc(-c2ccc3cc2OCCOCCOCCOCCOCCOc2cc-3ccc2-c2cnc([C@@H]3CCCN3C(=O)[C@@H](NC(=O)OC)C(C)C)[nH]2)[nH]1)C(C)C` [Compound 42], the EC50 fell in the range of 1 to 9.9 nM. Consider `COCCOc1cc(-c2cnc([C@@H]3CCCN3C(=O)[C@@H](NC(=O)OC)C(C)C)[nH]2)ccc1-c1ccc(-c2cnc([C@@H]3CCCN3C(=O)[C@@H](NC(=O)OC)[C@@H](C)OC)[nH]2)cc1OCCOC` [Compound 34], for which the EC50 lay in the range of 1 to 9.9 nM. Regarding `CC[C@H](C)[C@H](NC(=O)OC)C(=O)N1CCC[C@H]1c1ncc(-c2ccc(-c3ccc(-c4cnc([C@@H]5CCCN5C(=O)[C@@H](NC(=O)OC)C(C)C)[nH]4)cc3OCCOC)c(OCCOC)c2)[nH]1` [Compound 35], the EC50 was under 1 nM. Regarding `COCCOc1c(-c2ccc(-c3cnc([C@@H]4CCCN4C(=O)[C@H](NC(=O)OC)c4ccsc4)[nH]3)cc2)ccc(-c2cnc([C@@H]3CCCN3C(=O)[C@H](NC(=O)OC)c3ccsc3)[nH]2)c1OCCOC` [Compound 21], the EC50 was under 1 nM. As to `COCCOc1c(-c2ccc(-c3cnc([C@@H]4CCCN4C(=O)[C@H](NC(=O)OC)c4cccs4)[nH]3)cc2)ccc(-c2cnc([C@@H]3CCCN3C(=O)[C@H](NC(=O)OC)c3cccs3)[nH]2)c1OCCOC` [Compound 22], the EC50 was under 1 nM.

Source of the values: US8822520B2, “Substituted bicyclic HCV inhibitors” (Presidio Pharmaceuticals, Inc., priority 2010, dated 2014).
